Source: US20240208968A1, “ALPHA V BETA 6 AND ALPHA V BETA 1 INTEGRIN INHIBITORS AND USES THEREOF” (DiCE Molecules SV, Inc., priority 2021, published 2024)
Structures can show the parent of a compound that is named as a salt.

Tests used:
[1] = molecular target: αvβ6 (Homo sapiens, UniProt P06756+P18564); assay: Solid Phase Integrin αvβ6 Assay; format: binding
In short: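 Plates coated with 1 μg/mL recombinant TGFb1-LAP; compounds and αvβ6 (0.2 μg/mL diluted stock) incubated 1 h at room temperature in 2% BSA/TBST with 1 mM MnCl2. Bound integrin detected with streptavidin-HRP and TMB; IC50 from four-parameter logistic fits.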

[2] = molecular target: αvβ1 (Homo sapiens, UniProt P05556+P06756); assay: Solid Phase Integrin αvβ1 Assay; format: binding
Sequence of αvβ1 (P06756 31-992 limits assumed): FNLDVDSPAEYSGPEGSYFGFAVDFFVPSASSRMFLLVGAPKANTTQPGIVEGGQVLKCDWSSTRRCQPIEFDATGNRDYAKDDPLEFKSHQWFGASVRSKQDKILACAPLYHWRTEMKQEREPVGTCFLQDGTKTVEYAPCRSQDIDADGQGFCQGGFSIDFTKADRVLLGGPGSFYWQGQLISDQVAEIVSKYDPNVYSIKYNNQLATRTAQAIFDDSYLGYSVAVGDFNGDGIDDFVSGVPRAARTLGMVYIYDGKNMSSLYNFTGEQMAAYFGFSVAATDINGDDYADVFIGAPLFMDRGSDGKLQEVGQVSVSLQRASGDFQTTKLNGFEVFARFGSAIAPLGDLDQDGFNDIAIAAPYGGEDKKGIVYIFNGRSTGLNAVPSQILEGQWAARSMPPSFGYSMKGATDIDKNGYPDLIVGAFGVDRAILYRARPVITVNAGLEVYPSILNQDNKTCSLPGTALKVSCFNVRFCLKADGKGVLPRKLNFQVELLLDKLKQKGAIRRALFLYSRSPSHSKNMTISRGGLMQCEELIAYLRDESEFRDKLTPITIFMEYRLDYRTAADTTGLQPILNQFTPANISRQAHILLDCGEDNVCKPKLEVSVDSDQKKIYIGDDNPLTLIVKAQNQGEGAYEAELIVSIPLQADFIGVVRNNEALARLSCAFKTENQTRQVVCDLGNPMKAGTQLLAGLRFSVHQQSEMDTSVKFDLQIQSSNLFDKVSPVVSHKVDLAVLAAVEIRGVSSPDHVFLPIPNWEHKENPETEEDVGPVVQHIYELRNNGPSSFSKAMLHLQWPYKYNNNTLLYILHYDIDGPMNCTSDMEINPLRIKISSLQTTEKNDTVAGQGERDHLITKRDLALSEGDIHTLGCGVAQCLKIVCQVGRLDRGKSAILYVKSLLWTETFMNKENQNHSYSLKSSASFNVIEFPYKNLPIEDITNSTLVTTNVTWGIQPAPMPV
Sequence of αvβ1 (P05556 21-728 limits assumed): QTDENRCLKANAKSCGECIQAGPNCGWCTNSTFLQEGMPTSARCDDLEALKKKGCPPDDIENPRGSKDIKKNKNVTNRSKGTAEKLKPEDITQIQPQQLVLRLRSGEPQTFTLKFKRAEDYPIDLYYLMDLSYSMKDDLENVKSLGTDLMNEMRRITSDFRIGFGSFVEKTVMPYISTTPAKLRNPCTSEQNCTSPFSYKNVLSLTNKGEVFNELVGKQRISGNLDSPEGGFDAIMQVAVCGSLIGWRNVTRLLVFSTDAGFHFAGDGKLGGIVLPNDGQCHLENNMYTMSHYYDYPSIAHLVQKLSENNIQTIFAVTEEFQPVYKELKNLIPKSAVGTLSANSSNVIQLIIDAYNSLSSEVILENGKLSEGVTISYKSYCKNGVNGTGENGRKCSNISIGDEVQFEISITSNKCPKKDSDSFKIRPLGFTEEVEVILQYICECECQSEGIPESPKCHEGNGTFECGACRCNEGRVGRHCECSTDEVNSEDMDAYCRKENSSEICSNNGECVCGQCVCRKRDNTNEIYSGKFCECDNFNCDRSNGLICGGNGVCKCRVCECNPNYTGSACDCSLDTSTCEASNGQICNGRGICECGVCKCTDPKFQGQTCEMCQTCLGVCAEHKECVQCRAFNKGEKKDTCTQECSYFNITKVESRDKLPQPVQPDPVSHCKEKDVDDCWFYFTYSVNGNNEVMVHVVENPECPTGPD
In short: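 Wells coated with 1 µg/mL recombinant TGFb1-LAP and blocked with 2% BSA/TBST, 1 mM MnCl2; αvβ1 (added at 0.2 µg/mL) and compound incubated 90 min at room temperature. Bound integrin detected by streptavidin-HRP (20 min) and TMB after Mn-containing washes; IC50 by four-parameter logistic fit.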

Sequence of αvβ6 (P06756 31-992 limits assumed): as the sequence (P06756 31-992 limits assumed) above
Sequence of αvβ6 (P18564 22-707 limits assumed): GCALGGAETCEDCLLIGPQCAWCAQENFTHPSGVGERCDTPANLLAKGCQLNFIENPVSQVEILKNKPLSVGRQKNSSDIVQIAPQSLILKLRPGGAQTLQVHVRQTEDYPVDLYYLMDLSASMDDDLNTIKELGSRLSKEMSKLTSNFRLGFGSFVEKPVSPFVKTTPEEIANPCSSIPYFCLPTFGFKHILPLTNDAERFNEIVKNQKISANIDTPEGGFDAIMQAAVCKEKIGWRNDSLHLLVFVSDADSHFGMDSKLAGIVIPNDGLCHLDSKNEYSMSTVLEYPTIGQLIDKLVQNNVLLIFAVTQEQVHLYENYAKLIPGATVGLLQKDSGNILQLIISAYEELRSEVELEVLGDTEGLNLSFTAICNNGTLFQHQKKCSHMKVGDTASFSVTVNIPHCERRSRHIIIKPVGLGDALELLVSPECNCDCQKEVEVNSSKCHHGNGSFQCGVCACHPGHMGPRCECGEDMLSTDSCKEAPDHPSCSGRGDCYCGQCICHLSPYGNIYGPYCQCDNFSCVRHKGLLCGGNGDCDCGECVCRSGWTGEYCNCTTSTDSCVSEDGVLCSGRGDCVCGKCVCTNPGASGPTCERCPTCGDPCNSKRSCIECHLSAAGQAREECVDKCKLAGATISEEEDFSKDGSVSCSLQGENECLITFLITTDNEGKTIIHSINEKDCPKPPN

Row | Compound | IC50 [1] | IC50 [2]
1 | O=C(NC[C@@H](C(=O)O)c1ccc2ccccc2c1)[C@@H]1CCCN(CCCc2ccc3c(n2)NCCC3)C1 [Compound 249-B, 2-(naphthalen-2-yl)-3-((R)-1-(3-(5,6,7,8-tetrahydro-1,8-naphthyridin-2-yl)propyl)piperidine-3-carboxamido)propanoic acid] | < 100 nM | < 100 nM
2 | COC(C)(C)C1Cc2c(cccc2C(CNC(=O)[C@@H]2CCCN(CCCc3ccc4c(n3)NCCC4)C2)C(=O)O)CO1 (some centres unmarked) [Compound 538] | < 100 nM | < 100 nM
3 | CN(C[C@@H]1CCCN(CCCc2ccc3c(n2)NCCC3)C1)[C@@H](CC(=O)O)c1cccc(C2CC2)c1 [Compound 530] | > 1000 nM | > 1000 nM
4 | O=C(O)CC(NC(=O)[C@@H]1CCCN(CCCc2ccc3c(n2)NCCC3)C1)c1cc(C(F)(F)F)cc(C(F)(F)F)c1 (stereo partly drawn) [Compound 223, 3-(3,5-bis(trifluoromethyl)phenyl)-3-((R)-1-(3-(5,6,7,8-tetrahydro-1,8-naphthyridin-2-yl)propyl)piperidine-3-carboxamido)propanoic acid formic acid] | < 100 nM | < 100 nM
5 | O=C(N[C@@H](CNC(=O)[C@@H]1CCCN(CCCc2ccc3c(n2)NCCC3)C1)C(=O)O)c1cccc(Cl)c1Cl [Compound 365] | < 100 nM | < 100 nM
6 | O=C(O)C[C@H](NC(=O)[C@@H]1CCCN(CCCc2ccc3c(n2)NCCC3)C1)c1cccc(N2CCCCC2)c1 [Compound 232, (S)-3-(3-(piperidin-1-yl)phenyl)-3-((R)-1-(3-(5,6,7,8-tetrahydro-1,8-naphthyridin-2-yl)propyl)piperidine-3-carboxamido)propanoic acid hydrochloride] | < 100 nM | < 100 nM
7 | O=C(O)C[C@@H](CO[C@@H]1CCCN(CCCc2ccc3c(n2)NCCC3)C1)c1cc(C2CC2)ccc1F [Compound 508] | < 100 nM | < 100 nM
8 | O=C(NC1([C@H](C(=O)O)c2cccc(-c3ccccc3)c2)CC1)[C@@H]1CCCN(CCCc2ccc3c(n2)NCCC3)C1 [Compound 301-A, 2-([1,1′-biphenyl]-3-yl)-2-(1-((R)-1-(3-(5,6,7,8-tetrahydro-1,8-naphthyridin-2-yl)propyl)piperidine-3-carboxamido)cyclopropyl)acetic acid] | > 1000 nM | > 1000 nM

Results, then the compound that gave them:

Row | IC50 [1] | IC50 [2] | Compound
9 | 100 to 1000 nM | 100 to 1000 nM | O=C(O)C[C@H](CO[C@H]1CCCN(CCCc2ccc3c(n2)NCCC3)C1)c1ccccc1 [Compound 442]
10 | > 1000 nM | > 1000 nM | Cc1csc2ncnc(N[C@@H](CCO[C@@H]3CCCN(CCCc4ccc5c(n4)NCCC5)C3)C(=O)O)c12 [Compound 473]
11 | < 100 nM | < 100 nM | O=C(O)C[C@H](NC(=O)[C@@H]1CCCN(CCCc2ccc3c(n2)NCCC3)C1)c1cccc(N2CCCC2)c1 [Compound 227, (S)-3-(3-(pyrrolidin-1-yl)phenyl)-3-((R)-1-(3-(5,6,7,8-tetrahydro-1,8-naphthyridin-2-yl)propyl)piperidine-3-carboxamido)propanoic acid]
12 | < 100 nM | < 100 nM | O=C(NC[C@@H](Nc1cc(-c2ccccc2)ncn1)C(=O)O)[C@@H]1CCCN(CCCc2ccc3c(n2)NCCC3)C1 [Compound 449]
13 | < 100 nM | < 100 nM | O=C(O)[C@H](CCO[C@@H]1CCCN(CCCc2ccc3c(n2)NCCC3)C1)NC(=O)[C@@H]1CCCN1S(=O)(=O)c1ccccc1 [Compound 476]
14 | < 100 nM | 100 to 1000 nM | CN1CCc2cc(S(=O)(=O)N[C@@H](CNC(=O)[C@@H]3CCCN(CCCc4ccc5c(n4)NCCC5)C3)C(=O)O)ccc21 [Compound 542]
15 | < 100 nM | < 100 nM | O=C(NC[C@H](C(=O)O)c1cncc(-c2ccccc2)c1)[C@@H]1CCCN(CCCc2ccc3c(n2)NCCC3)C1 [Compound 620]
16 | > 1000 nM | > 1000 nM | O=C(N[C@H](CCO[C@@H]1CCCN(CCCc2ccc3c(n2)NCCC3)C1)C(=O)O)c1c(F)cc(N2CCOC[C@@H]2C(F)(F)F)cc1F [Compound 494]
